Measured values published in patent publication US10669272B2, “Substituted naphthyridinone compounds useful as T cell activators” (BRISTOL-MYERS SQUIBB COMPANY, priority 2018, dated 2020).
Like-named read-outs stand apart in the source and are kept apart here.

Experiments:
human DGKα = target: T1, human DGKα (Homo sapiens, UniProt P23743); test: DGKα LIPGLO assay (extruded liposome substrate), in vitro DGK inhibition; assay type: biochemical
T1 construct: TVMV protease cleavage site (C); Hexa-His (C); made in house; host or cells: Sf9 insect cells (baculovirus, Bac-to-Bac)
T1 sequence (P23743 with tags, fused parts or gaps): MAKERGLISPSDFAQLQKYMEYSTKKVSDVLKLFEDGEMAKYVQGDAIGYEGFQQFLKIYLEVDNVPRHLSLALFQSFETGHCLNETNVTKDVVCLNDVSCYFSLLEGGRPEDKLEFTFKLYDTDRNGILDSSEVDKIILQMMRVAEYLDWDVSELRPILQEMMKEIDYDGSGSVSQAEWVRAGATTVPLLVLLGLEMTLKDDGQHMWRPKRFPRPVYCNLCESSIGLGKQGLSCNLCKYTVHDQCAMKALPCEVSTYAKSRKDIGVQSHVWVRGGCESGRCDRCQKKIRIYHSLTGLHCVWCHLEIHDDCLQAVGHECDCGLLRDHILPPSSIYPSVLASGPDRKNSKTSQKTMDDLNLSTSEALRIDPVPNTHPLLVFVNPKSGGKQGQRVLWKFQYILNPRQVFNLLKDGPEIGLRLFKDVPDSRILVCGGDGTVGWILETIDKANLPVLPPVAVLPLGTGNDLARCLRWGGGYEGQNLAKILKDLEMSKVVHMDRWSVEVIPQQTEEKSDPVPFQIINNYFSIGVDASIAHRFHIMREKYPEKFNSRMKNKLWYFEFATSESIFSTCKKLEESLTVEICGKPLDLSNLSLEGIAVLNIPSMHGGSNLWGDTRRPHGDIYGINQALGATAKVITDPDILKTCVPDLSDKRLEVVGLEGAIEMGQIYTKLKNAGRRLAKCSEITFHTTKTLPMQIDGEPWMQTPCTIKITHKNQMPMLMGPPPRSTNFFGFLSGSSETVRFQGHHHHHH

human DGKζ = target: T2, human DGKζ (Homo sapiens, UniProt Q13574); test: DGKζ LIPGLO assay (extruded liposome substrate), in vitro DGK inhibition; assay type: biochemical; conditions: read-out: DGKz LIPGLO IC50
T2 construct: TVMV protease cleavage site (C); Hexa-His (C); made in house; host or cells: Sf9 insect cells (baculovirus, Bac-to-Bac)
T2 sequence (Q13574 with tags, fused parts or gaps isoform Q13574-4): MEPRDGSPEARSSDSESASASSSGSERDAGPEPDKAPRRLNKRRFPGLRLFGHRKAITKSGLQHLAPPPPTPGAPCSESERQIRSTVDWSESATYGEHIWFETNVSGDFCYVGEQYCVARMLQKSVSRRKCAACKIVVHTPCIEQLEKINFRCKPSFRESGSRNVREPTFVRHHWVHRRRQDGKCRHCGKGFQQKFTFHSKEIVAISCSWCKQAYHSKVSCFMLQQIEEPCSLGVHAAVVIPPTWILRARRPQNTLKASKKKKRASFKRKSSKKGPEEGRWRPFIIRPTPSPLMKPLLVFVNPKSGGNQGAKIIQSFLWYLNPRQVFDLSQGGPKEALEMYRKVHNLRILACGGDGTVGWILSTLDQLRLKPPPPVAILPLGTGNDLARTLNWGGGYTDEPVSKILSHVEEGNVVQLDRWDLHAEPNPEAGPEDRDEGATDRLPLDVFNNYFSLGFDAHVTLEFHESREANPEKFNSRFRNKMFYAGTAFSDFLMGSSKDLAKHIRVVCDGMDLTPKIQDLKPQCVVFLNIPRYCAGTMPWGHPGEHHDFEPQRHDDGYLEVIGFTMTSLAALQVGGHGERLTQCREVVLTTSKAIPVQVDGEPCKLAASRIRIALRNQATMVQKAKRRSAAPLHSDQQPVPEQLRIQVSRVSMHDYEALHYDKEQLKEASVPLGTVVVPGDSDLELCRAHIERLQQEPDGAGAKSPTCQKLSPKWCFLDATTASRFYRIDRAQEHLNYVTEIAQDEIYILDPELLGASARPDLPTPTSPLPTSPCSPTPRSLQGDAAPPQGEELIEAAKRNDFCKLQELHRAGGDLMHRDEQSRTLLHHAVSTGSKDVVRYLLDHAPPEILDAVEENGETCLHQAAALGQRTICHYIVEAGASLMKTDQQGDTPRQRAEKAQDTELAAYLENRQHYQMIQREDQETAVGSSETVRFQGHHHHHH

Human venous whole blood = test: Human whole blood IFN-γ assay; assay type: cell-based; conditions: human whole blood, read-out: INFg Whole Blood Normalized Agonist EC50;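 also: blood from healthy donors exposed to compound for 1 h before stimulation with anti-CD3 and anti-CD28 at 1 µg/mL each, IFN-γ quantified in supernatant by AlphaLISA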
Experimental: Human Whole Blood IFN-γ Assay
Human venous whole blood (22.5 μL per well), obtained from healthy donors, was pre-treated with compounds for one hour at 37° C. in a humidified 95% air/5% CO2 incubator. The blood was stimulated with 2.5 μL anti-human CD3 and anti-CD28 mAb at a final concentration of 1 μg/mL each for 24 hours at 37° C. IFN-γ in the supernatants was measured using AlphLISA kit (Cat # AL217).

[1] = DGKα liposome (LIPGLO) assay, read-out: DGKa LIPGLO IC50
[2] = Homo sapiens, 24 h, anti-CD3 plus anti-CD28, 24 hours, 3 μM reference compound = 100% activation
[3] = liposome (LIPGLO) assay, read-out: DGKa LIPGLO IC50
[4] = normalized to 3 μM reference compound with anti-CD3 plus anti-CD28 as 100% activation
[5] = anti-CD3 plus anti-CD28, 24 hours, 3 μM reference compound = 100% activation
[6] = Homo sapiens, 24 h, normalized to 3 μM reference compound with anti-CD3 plus anti-CD28 as 100% activation

## C[C@@H]1CN(c2cc(=O)n(C)c3ccc(C#N)nc23)[C@@H](C)CN1C(c1ccc(F)cc1)c1nnc(C2CC2)o1 (single isomer, unassigned) [Example 763]
Human DGKα; [1]
  IC50: 4.5 µM
Human DGKζ; DGKζ liposome (LIPGLO) assay
  IC50: 0.76 µM
Human venous whole blood; [2]
  EC50: 1.8 µM

## [2H]C(CC)(c1ccc(F)cc1)N1C[C@H](C)N(c2cc(=O)n(C)c3ccc(C#N)nc23)C[C@H]1C (single isomer, unassigned) [Example 574]
Human DGKα; [3]
  IC50: 1.8 µM
Human DGKζ; liposome (LIPGLO) assay
  IC50: 28 µM
Human venous whole blood; [4]
  EC50: 7.3 µM

## C[C@@H]1CN(c2c(C#N)c(=O)n(C)c3ccc(C#N)nc23)CCN1Cc1cccc(C(F)(F)F)c1 [Example 1003]
Human DGKα; [1]
  IC50: 2.8 µM
Human DGKζ; DGKζ liposome (LIPGLO) assay
  IC50: 3.9 µM
Human venous whole blood; [2]
  EC50: 20 µM

## CC(C)c1noc(C(c2ccc(F)cc2)N2C[C@H](C)N(c3cc(=O)n(C)c4ccc(C#N)nc34)C[C@H]2C)n1 (single isomer, unassigned) [Example 748]
Human DGKα; [1]
  IC50: 0.054 µM
Human DGKζ; DGKζ liposome (LIPGLO) assay
  IC50: 0.22 µM
Human venous whole blood; [5]
  EC50: 0.41 µM

## C[C@@H]1CN(c2c(C#N)c(=O)n(C)c3ccc(C#N)nc23)CCN1Cc1cccc(-c2ccccc2)c1 [Example 1004]
Human DGKα; [1]
  IC50: 3.9 µM
Human DGKζ; DGKζ liposome (LIPGLO) assay
  IC50: 11 µM
Human venous whole blood; [2]
  EC50: 3.5 µM

## C[C@@H]1CN(c2c(C#N)c(=O)n(C)c3ccc(C#N)nc23)CCN1Cc1ccc(Cl)c(F)c1 [Example 1015]
Human DGKα; [1]
  IC50: 1.4 µM
Human DGKζ; DGKζ liposome (LIPGLO) assay
  IC50: 8.2 µM
Human venous whole blood; [2]
  EC50: 2.7 µM

## COCC(F)(F)C(c1ccc(F)cc1)N1C[C@H](C)N(c2cc(=O)n(C)c3ccc(C#N)nc23)C[C@H]1C (single isomer, unassigned) [Example 1312]
Human DGKα; [3]
  IC50: 0.1 µM
Human DGKζ; liposome (LIPGLO) assay
  IC50: 0.15 µM
Human venous whole blood; [6]
  EC50: 0.33 µM

## Cc1ccc(C(c2cccc3c2OCCCO3)N2C[C@H](C)N(c3cc(=O)n(C)c4ccc(C#N)nc34)C[C@H]2C)nc1 (single isomer, unassigned) [Example 469]
Human DGKα; [3]
  IC50: 1.7 µM
Human DGKζ; liposome (LIPGLO) assay
  IC50: 0.51 µM
Human venous whole blood; [4]
  EC50: 3.2 µM

## C[C@@H]1CN(c2cc(=O)n(C)c3ccc(C#N)nc23)[C@@H](C)CN1C(c1ccc(F)cc1)c1nc(C2CC2)nn1C (single isomer, unassigned) [Example 768]
Human DGKα; [1]
  IC50: 14 µM
Human DGKζ; DGKζ liposome (LIPGLO) assay
  IC50: 3.2 µM
Human venous whole blood; [5]
  EC50: 1.8 µM

## C[C@@H]1CN(c2c(C#N)c(=O)n(C)c3ccc(C#N)nc23)[C@@H](C)CN1C(c1ccccc1)c1ccc(F)cc1 (stereo partly drawn) [Example 807]
Human DGKα; [1]
  IC50: 5 µM
Human DGKζ; DGKζ liposome (LIPGLO) assay
  IC50: 2.6 µM
Human venous whole blood; [2]
  EC50: 2.5 µM

## C[C@@H]1CN(c2cc(=O)n(C)c3ccc(C#N)nc23)[C@@H](C)CN1C(c1ccc(F)cc1)c1ccns1 (stereo partly drawn) [Example 719]
Human DGKα; [3]
  IC50: 0.4 µM
Human DGKζ; liposome (LIPGLO) assay
  IC50: 0.38 µM
Human venous whole blood; [4]
  EC50: 0.5 µM

## Cc1ccc(C(c2cccc(Cl)c2)N2CCN(c3c(C#N)c(=O)n(C)c4ccc(C#N)nc34)C[C@H]2C)nc1 (single isomer, unassigned) [Example 929]
Human DGKα; [1]
  IC50: 7.7 µM
Human DGKζ; DGKζ liposome (LIPGLO) assay
  IC50: 1.1 µM
Human venous whole blood; [5]
  EC50: 1.3 µM

## C[C@@H]1CN(c2cc(=O)n(C)c3ccc(C#N)nc23)[C@@H](C)CN1C(c1ccc(F)cc1)c1nc(C2CC2)cs1 (single isomer, unassigned) [Example 700]
Human DGKα; [3]
  IC50: 0.38 µM
Human DGKζ; liposome (LIPGLO) assay
  IC50: 0.095 µM
Human venous whole blood; [4]
  EC50: 0.12 µM

## C[C@@H]1CN(c2c(C#N)c(=O)n(C)c3ccc(C#N)nc23)CCN1C(c1ccc(F)cc1)c1cnn(C)c1 (stereo partly drawn) [Example 1016]
Human DGKα; [1]
  IC50: 3.3 µM
Human DGKζ; DGKζ liposome (LIPGLO) assay
  IC50: 7.5 µM
Human venous whole blood; [2]
  EC50: 3.3 µM

## CC(c1nc(C2CC2)cs1)N1C[C@H](C)N(c2cc(=O)n(C)c3ccc(C#N)nc23)C[C@H]1C (single isomer, unassigned) [Example 647]
Human DGKα; [3]
  IC50: 0.22 µM
Human DGKζ; liposome (LIPGLO) assay
  IC50: 0.075 µM
Human venous whole blood; [4]
  EC50: 5.2 µM

## CCC(c1ccc(OC(C)C)cc1)N1C[C@H](C)N(c2cc(=O)n(C)c3ccc(C#N)nc23)C[C@H]1CC (single isomer, unassigned) [Example 1447]
Human DGKα; [3]
  IC50: 0.28 µM
Human DGKζ; liposome (LIPGLO) assay
  IC50: 0.024 µM
Human venous whole blood; [4]
  EC50: 0.05 µM

## Cc1ccnc(C(c2ccc(F)cc2)N2C[C@H](C)N(c3cc(=O)n(C)c4ccc(C#N)nc34)C[C@H]2C)c1 (single isomer, unassigned) [Example 456]
Human DGKα; [3]
  IC50: 0.23 µM
Human DGKζ; liposome (LIPGLO) assay
  IC50: 1 µM
Human venous whole blood; [4]
  EC50: 1.1 µM

## CC[C@@H]1CN(c2cc(=O)n(C)c3ccc(C#N)nc23)[C@@H](C)CN1Cc1ccc(OC(F)(F)F)c(F)c1 [Example 1332]
Human DGKα; [3]
  IC50: 0.53 µM
Human DGKζ; liposome (LIPGLO) assay
  IC50: 0.61 µM
Human venous whole blood; [6]
  EC50: 4.4 µM

## CC(c1ccc2c(c1)OC(F)(F)O2)N1C[C@H](C)N(c2cc(=O)n(C)c3ccc(C#N)nc23)C[C@H]1C (single isomer, unassigned) [Example 655]
Human DGKα; [3]
  IC50: 4.2 µM
Human DGKζ; liposome (LIPGLO) assay
  IC50: 1.3 µM
Human venous whole blood; [4]
  EC50: 6.6 µM

## COC(=O)c1cccc(C(C)N2CCN(c3c(C#N)c(=O)n(C)c4ccc(C#N)nc34)C[C@H]2C)c1 (single isomer, unassigned) [Example 983]
Human DGKα; [1]
  IC50: 3.5 µM
Human DGKζ; DGKζ liposome (LIPGLO) assay
  IC50: 7.2 µM
Human venous whole blood; [5]
  EC50: 13 µM

## Cc1ccc(C(c2ccc(C#N)cc2)N2C[C@H](C)N(c3cc(=O)n(C)c4ccc(C#N)nc34)C[C@H]2C)nc1 (single isomer, unassigned) [Example 361]
Human DGKα; [3]
  IC50: 0.21 µM
Human DGKζ; liposome (LIPGLO) assay
  IC50: 1.1 µM
Human venous whole blood; [4]
  EC50: 1.1 µM

## Cc1ccc(C)c(C(C)N2CCN(c3c(C#N)c(=O)n(C)c4ccc(C#N)nc34)C[C@H]2C)c1 (single isomer, unassigned) [Example 976]
Human DGKα; [1]
  IC50: 17 µM
Human DGKζ; DGKζ liposome (LIPGLO) assay
  IC50: 6.4 µM
Human venous whole blood; [5]
  EC50: 20 µM

## CC[C@H]1CN(C(c2ccc(Cl)cc2)c2ccc(Cl)cc2)[C@H](CC)CN1c1cc(=O)n(C)c2ccc(C#N)nc12 [Example 1032]
Human DGKα; [3]
  IC50: 0.31 µM
Human DGKζ; liposome (LIPGLO) assay
  IC50: 0.28 µM
Human venous whole blood; [6]
  EC50: 0.28 µM

## C[C@@H]1CN(c2c(C#N)c(=O)n(C)c3ccc(C#N)nc23)[C@@H](C)CN1C(c1ccccc1)c1ccc(Cl)cc1 (stereo partly drawn) [Example 834]
Human DGKα; [1]
  IC50: 22 µM
Human DGKζ; DGKζ liposome (LIPGLO) assay
  IC50: 6 µM
Human venous whole blood; [5]
  EC50: 3.6 µM

## Cc1ccc(C(c2cccc(F)c2)N2C[C@H](C)N(c3cc(=O)n(C)c4ccc(C#N)nc34)C[C@H]2C)cn1 (single isomer, unassigned) [Example 390]
Human DGKα; [3]
  IC50: 17 µM
Human DGKζ; liposome (LIPGLO) assay
  IC50: 7.4 µM
Human venous whole blood; [4]
  EC50: 2.6 µM

## C[C@@H]1CN(c2cc(=O)n(C)c3ccc(C#N)nc23)[C@@H](C)CN1C(c1ccc(F)cc1)c1cccc(S(C)(=O)=O)c1 (single isomer, unassigned) [Example 688]
Human DGKα; [3]
  IC50: 83 µM
Human DGKζ; liposome (LIPGLO) assay
  IC50: 24 µM
Human venous whole blood; [4]
  EC50: 13 µM

## Cc1ccc(C(c2ccc(F)cc2)N2CCN(c3c(C#N)c(=O)n(C)c4ccc(C#N)nc34)C[C@H]2C)cc1 (stereo partly drawn) [Example 888]
Human DGKα; [1]
  IC50: 0.51 µM
Human DGKζ; DGKζ liposome (LIPGLO) assay
  IC50: 0.33 µM
Human venous whole blood; [2]
  EC50: 1.2 µM

## C[C@@H]1CN(c2cc(=O)n(C)c3ccc(C#N)nc23)[C@@H](C)CN1C(c1ccc(OC(F)(F)F)cc1)c1ccc(F)cn1 (single isomer, unassigned) [Example 466]
Human DGKα; [3]
  IC50: 0.19 µM
Human DGKζ; liposome (LIPGLO) assay
  IC50: 1.8 µM
Human venous whole blood; [4]
  EC50: 5.5 µM

## C[C@@H]1CN(c2c(F)c(=O)n(C)c3ccc(C#N)nc23)[C@@H](C)CN1C(c1ccc(F)cc1)c1ccccc1F (stereo partly drawn) [Example 334, 7-fluoro-8-((2S,5R)-4-((2-fluorophenyl)(4-fluorophenyl)methyl)-2,5-dimethylpiperazin-1-yl)-5-methyl-6-oxo-5,6-dihydro-1,5-naphthyridine-2-carbonitrile]
Human DGKα; [3]
  IC50: 0.5 µM
Human DGKζ; liposome (LIPGLO) assay
  IC50: 0.56 µM
Human venous whole blood; [4]
  EC50: 1.9 µM

## CC(c1ccc(Cl)cc1)N1C[C@H](C)N(c2c(C#N)c(=O)n(C)c3ccc(C#N)nc23)C[C@H]1C (single isomer, unassigned) [Example 792]
Human DGKα; DGKa LIPGLO IC50, DGKα liposome (LIPGLO) assay
  IC50: 1.5 µM
Human DGKζ; DGKζ liposome (LIPGLO) assay
  IC50: 83 µM
Human venous whole blood; [5]
  EC50: 21 µM

## Cc1ccc(C(c2ccc(F)cn2)N2CCN(c3c(C#N)c(=O)n(C)c4ccc(C#N)nc34)C[C@H]2C)cc1 (stereo partly drawn) [Example 899]
Human DGKα; [1]
  IC50: 0.63 µM
Human DGKζ; DGKζ liposome (LIPGLO) assay
  IC50: 1.7 µM
Human venous whole blood; [5]
  EC50: 0.99 µM
